Test results published in US11439657B2, “Cancer stem cell growth inhibitor using miRNA” (CancerStem Tech Inc., priority 2017, dated 2022).
Entries after “also recorded” stand apart in the source; their conditions may differ.

Experiments:
Format in all cases: cell-based
[1] = tested on: human large bowel cancer cells (DLD1 line); test: Antitumor effect on human large bowel cancer cells, cell count after transfection; conditions: 10 pmol/well, FIG. 11; for antitumor effect: 72 hours, positive control hsa-miR-34a; for proliferation inhibitory effect on large bowel cancer cells: cells counted 72 hours after transfection
Description: (§1) A cell suspension prepared by suspending human pancreatic cancer cells (Bxpc3 line) in D-MEM medium (containing 10% by volume FBS) was seeded in each well of a 24-well plate at 3×10^3 cells/well, followed by culture at 37° C. overnight. Thereafter, according to the lipofectamin 2000 protocol, each miRNA was transfected at 10 pmol/well, and 48 hours later, the cells were counted. In addition, tests were also conducted under the same condition on a case where the miRNA was not introduced (untreated group), a case where hsa-miR-34a (SEQ ID NO: 8) was used (positive control) in place of the miRNA, and a case where a control miRNA (SEQ ID NO: 9) was used (control miRNA, negative control) in place of the selected miRNA.
(§2) As to hsa-miR-136-5p, hsa-miR-3065-3p, hsa-miR-4727-5p, hsa-miR-378g, hsa-miR-181a-5p, hsa-miR-362-5p and hsa-miR-608, evaluation was performed of the antitumor effect on human large bowel cancer cells. The specific test method is the same as that for Test Example 4 except that human large bowel cancer cells (DLD1 line) were used as cancer cells, and that the cells were counted 72 hours after transfection.

[2] = tested on: human gastric cancer cells (AGS line); test: Antitumor effect on human gastric cancer cells, cell count after transfection; conditions: 10 pmol/well, 48 hours, FIG. 10; for antitumor effect: positive control hsa-miR-34a
Description: as §1
As to hsa-miR-136-5p, hsa-miR-3065-3p and hsa-miR-181a-5p, evaluation was performed of the antitumor effect on human gastric cancer cells. The specific test method is the same as that for Test Example 4 except that human gastric cancer cells (AGS line) were used as cancer cells.

[3] = tested on: human esophageal cancer cells (TE11 line); test: Antitumor effect on human esophageal cancer cells, cell count after transfection; conditions: 10 pmol/well, FIG. 12; for antitumor effect: 72 hours, positive control hsa-miR-34a; for proliferation inhibitory effect on esophageal cancer cells: cells counted 72 hours after transfection
Description: as §1
as §2, with “hsa-miR-378g and” for “hsa-miR-378g,”, “hsa-miR-181a-5p,” for “hsa-miR-181a-5p, hsa-miR-362-5p and hsa-miR-608,”, “esophageal” for “large bowel”, “(TE11” for “(DLD1”

[4] = tested on: human large bowel cancer cells (HT29 line, HCT116 line and DLD1 line); test: Proliferation assay (absorbance at 450 nm over time); conditions: HT29, HCT116 and DLD1 lines; 50 nM; culture for 96 hours; versus control miRNA; FIG. 13
Description: A cell suspension prepared by suspending human large bowel cancer cells (HT29 line, HCT116 line and DLD1 line) in DMEM medium (containing 10% by volume FBS) was seeded in each well of a 96-well plate at 3×10^3 cells/well, followed by culture at 37° C. overnight. Then, a mixture of lipofectamin RNAiMAX, Reagent (final concentration in each well: 0.03 μL/ml) and hsa-miR-3065-3p (final concentration in each well: 50 nM) was added for transfection. Subsequently, culture was carried out for 96 hours, and the absorbance at 450 nm was measured over time. In addition, tests were also performed wider the same condition on a case where a control miRNA (SEQ ID NO: 9) was used (control miRNA, negative control) in place of hsa-miR-3065-3p.
In FIG. 13, the time-course of relative values of the absorbance is shown, in which the relative values were determined when the absorbance after culture for 24 hours from transfection of hsa-miR-3065-3p was 1. […] This is because, as described above, among human large bowel cancer cells (HT29 line, HCT116 line and DLD1 line), cancer stem cells are present, so that hsa-miR-3065-3p is considered to intensively suppress proliferation of the cancer stem cells in particular, leading to the result.

[5] = tested on: human large bowel cancer cells (DLD1 line); test: Infiltration assay (Matrigel Invasion Chambers); conditions: 20 pmol/cell culture insert, 48 hours, versus control miRNA, FIG. 15
Description: The infiltration assay was performed using BD Matrigel Invasion Chambers, 12 Chambers per 24-Well Plate (BD Biosciences). First, […] of RPMI medium (containing 10% by volume FBS) was added in the wells of a companion plate. Furthermore, in a cell culture insert having a Matrigel basement membrane, a mixture of human large bowel cancer cells (DLD1 line) at 1×10^6 cells/well, lipofectamin RNAiMAX Regent (final concentration in the cell culture insert: 2 μL/ml) and hsa-miR-3065-3p (final concentration in the cell culture insert: 20 pmol/cell culture insert) was added, followed by culture for 48 hours. Thereafter, the cell culture insert was removed, and cells adhering to the outside of the Matrigel basement membrane were fixed with formalin and then stained with hematoxylin to count the cells migrated to the outside of the Matrigel basement membrane. In addition, tests were also performed under the same condition on a case where a control miRNA (SEQ ID NO: 9) was used (control miRNA, negative control) in place of hsa-miR-3065-3p.

[6] = tested on: human large bowel cancer cells (DLD1 line); test: Wound healing assay; conditions: 20 pmol/well, wound area at 24 and 48 hours, compared to the negative control, FIG. 17
Description: Wound healing assay was performed using Culture-Insert (NIPPON Genetics Co, Ltd). In each well of a 24-well plate, 70 μl of cell suspension (4.9×10^4 cells/well) prepared by suspending human large bowel cancer cells (DLD1 line) in RPMI medium (containing 10% by volume FBS) and an insert that could create a constant gap of 0.5±0.05 mm in width between cells were placed, followed by culture for 1 day, so that a single layer of cells and an area where there is no cell (wound area) corresponding to the gap were formed at the bottom of the well. Then, the insert and culture supernatant were remove, 500 μl of DMEM medium (serum free) was added to each well, and further a mixture of lipofectamin RNAiMAX Regent (final concentration in well: 2 μl/well) and hsa-miR-3065-3p (final concentration in well: 20 pmol/well) was added, followed by culture for 1 day. Thereafter, the medium was changed to RPMI medium (containing 10% by volume FBS), followed by culture for 48 hours. The culture using RPMI medium (containing 10% by volume FBS) had the medium replaced with a fresh medium at 24 hours after the start of culture. The area of wound area was determined at 0, 24 and 48 hours from the start of culture using RPMI medium (containing 10% by volume FBS). When the wound area at 0 hour from the start of culture was 100%, the percentages of wound area at 24 and 48 hours after culture were determined. […]

Row | Substance | antitumor effect [1] | proliferation inhibitory effect on large bowel cancer cells [1] | proliferation inhibitory effect on gastric cancer cells [2] | antitumor effect [2] | antitumor effect [3] | proliferation inhibitory effect on esophageal cancer cells [3] | proliferation inhibitory effect on human large bowel cancer cells [4] | migration ability of human large bowel cancer cells (cells migrated to the outside of the Matrigel basement membrane) [5] | decrease in wound area (migration) [6]
1 | hsa-miR-136-5p: human-derived miR-136-5p; base sequence set forth in SEQ ID NO: 1 as mature miRNA (ACUCCAUUUGUUUUGAUGAUGGA; listed as RNA, chemistry not given here; listed as Homo sapiens) | much better antitumor effect than that of hsa-miR-34a; also recorded: particularly remarkable antitumor effect | strong proliferation inhibitory effect | strong proliferation inhibitory effect | much better antitumor effect than that of hsa-miR-34a; also recorded: particularly remarkable antitumor effect | much better antitumor effect than that of hsa-miR-34a | strong proliferation inhibitory effect | – | – | –
2 | hsa-miR-3065-3p: human-derived miR-3065-3p; base sequence set forth in SEQ ID NO: 2 as mature miRNA (UCAGCACCAGGAUAUUGUUGGAG; listed as RNA, chemistry not given here; listed as Homo sapiens) | much better antitumor effect than that of hsa-miR-34a; also recorded: particularly remarkable antitumor effect | strong proliferation inhibitory effect | strong proliferation inhibitory effect | much better antitumor effect than that of hsa-miR-34a | much better antitumor effect than that of hsa-miR-34a; also recorded: particularly remarkable antitumor effect | strong proliferation inhibitory effect | high proliferation inhibitory effect | able to inhibit the migration ability | significantly suppressed
